Each compound was assayed against hPAD4 enzyme (Homo sapiens (Human), UniProt Q9UM07) (assay: RFMS2 assay (RapidFire mass spectrometry, TSTGGRQGSHH peptide substrate)). Conditions: 35 nM recombinant human PAD4, 500 μM TSTGGRQGSHH peptide, 30 minutes at room temperature; read-out: RFMS 2 IC50.
Format: biochemical
How it was run: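 Recombinant human PAD4 (35 nM) with 500 μM TSTGGRQGSHH peptide in HEPES pH 7.4, 200 mM NaCl, 2 mM CaCl2, 5 mM DTT, 1.2% DMSO, 30 min at room temperature; 3-fold compound series, top 20 μM. Quenched with formic acid; substrate and citrullinated product quantified by RapidFire MRM mass spectrometry for IC50.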

Chain of hPAD4 enzyme (Q9UM07 whole entry): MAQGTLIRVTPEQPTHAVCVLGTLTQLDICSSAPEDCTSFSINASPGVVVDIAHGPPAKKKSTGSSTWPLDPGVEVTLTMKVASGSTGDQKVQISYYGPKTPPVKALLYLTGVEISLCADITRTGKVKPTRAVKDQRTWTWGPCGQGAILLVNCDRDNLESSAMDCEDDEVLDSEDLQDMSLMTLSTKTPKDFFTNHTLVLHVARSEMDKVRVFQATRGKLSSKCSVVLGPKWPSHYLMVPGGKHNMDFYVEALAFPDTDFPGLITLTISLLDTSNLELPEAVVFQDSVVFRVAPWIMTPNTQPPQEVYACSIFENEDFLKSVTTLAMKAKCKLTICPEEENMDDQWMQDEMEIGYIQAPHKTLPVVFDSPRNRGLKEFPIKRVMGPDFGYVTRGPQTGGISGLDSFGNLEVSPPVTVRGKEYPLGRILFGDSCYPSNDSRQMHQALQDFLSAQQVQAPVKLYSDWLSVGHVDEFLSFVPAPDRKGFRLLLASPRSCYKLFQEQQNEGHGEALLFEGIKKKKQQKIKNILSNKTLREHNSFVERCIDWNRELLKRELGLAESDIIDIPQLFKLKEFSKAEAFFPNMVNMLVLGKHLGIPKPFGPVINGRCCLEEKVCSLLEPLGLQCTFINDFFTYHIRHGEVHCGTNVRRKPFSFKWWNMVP

IC50 [nM]	Structure (SMILES)
101 to 500	Cc1nncn1CCOc1cccc2cc(-c3nc4cc5c(cc4n3C)CCN(C[C@H](N)CF)C5=O)n(CC3CC3)c12 [Example 182, (S)-6-(2-amino-3-fluoropropyl)-2-(1-(cyclopropylmethyl)-7-(2-(3-methyl-4H-1,2,4-triazol-4-yl)ethoxy)-1H-indol-2-yl)-1-methyl-1,6,7,8-tetrahydro-5H-imidazo[4,5-g]isoquinolin-5-one]
101 to 500	Cn1c(-c2cc3cccc(OCc4cccnn4)c3n2CC2CC2)nc2cc3c(cc21)CCN(C[C@H](N)CF)C3=O [Example 183, (S)-6-(2-amino-3-fluoropropyl)-2-(1-(cyclopropylmethyl)-7-(pyridazin-3-ylmethoxy)-1H-indol-2-yl)-1-methyl-1,6,7,8-tetrahydro-5H-imidazo[4,5-g]isoquinolin-5-one]
101 to 500	Cn1c(-c2cc3cccc(OCC4CC(F)(F)C(=O)N4)c3n2CC2CC2)nc2cc3c(cc21)CCN(C[C@H](N)CF)C3=O (stereo partly drawn) [Example 185, 6-((S)-2-amino-3-fluoropropyl)-2-(1-(cyclopropylmethyl)-7-((4,4-difluoro-5-oxopyrrolidin-2-yl)methoxy)-1H-indol-2-yl)-1-methyl-1,6,7,8-tetrahydro-5H-imidazo[4,5-g]isoquinolin-5-one]
> 1000	Cn1c(-c2cc3cccc(OC[C@@H]4COCCN4)c3n2CC2CC2)nc2cc3c(cc21)CCN(C[C@H](N)CF)C3=O [Example 187, 6-((S)-2-amino-3-fluoropropyl)-2-(1-(cyclopropylmethyl)-7-(((S)-morpholin-3-yl)methoxy)-1H-indol-2-yl)-1-methyl-1,6,7,8-tetrahydro-5H-imidazo[4,5-g]isoquinolin-5-one]
501 to 1000	Cn1c(-c2cc3cccc(OC[C@H]4COCCN4)c3n2CC2CC2)nc2cc3c(cc21)CCN(C[C@H](N)CF)C3=O [Example 188, 6-((S)-2-amino-3-fluoropropyl)-2-(1-(cyclopropylmethyl)-7-(((R)-morpholin-3-yl)methoxy)-1H-indol-2-yl)-1-methyl-1,6,7,8-tetrahydro-5H-imidazo[4,5-g]isoquinolin-5-one]
101 to 500	Cn1c(-c2cc3cccc(OCc4cocn4)c3n2CC2CC2)nc2cc3c(cc21)CCN(C[C@H](N)CF)C3=O [Example 189, (S)-6-(2-amino-3-fluoropropyl)-2-(1-(cyclopropylmethyl)-7-(oxazol-4-ylmethoxy)-1H-indol-2-yl)-1-methyl-1,6,7,8-tetrahydro-5H-imidazo[4,5-g]isoquinolin-5-one]
101 to 500	C[C@@H](CCO)Oc1cccc2cc(-c3nc4cc5c(cc4n3C)CCN(C[C@H](N)CF)C5=O)n(CC3CC3)c12 [Example 191, 6-((S)-2-amino-3-fluoropropyl)-2-(1-(cyclopropylmethyl)-7-(((S)-4-hydroxybutan-2-yl)oxy)-1H-indol-2-yl)-1-methyl-1,6,7,8-tetrahydro-5H-imidazo[4,5-g]isoquinolin-5-one]
101 to 500	C[C@H](CCO)Oc1cccc2cc(-c3nc4cc5c(cc4n3C)CCN(C[C@H](N)CF)C5=O)n(CC3CC3)c12 [Example 192, 6-((S)-2-amino-3-fluoropropyl)-2-(1-(cyclopropylmethyl)-7-(((R)-4-hydroxybutan-2-yl)oxy)-1H-indol-2-yl)-1-methyl-1,6,7,8-tetrahydro-5H-imidazo[4,5-g]isoquinolin-5-one]
11 to 100	Cn1c(-c2cc3cccc(OCc4cn[nH]c4)c3n2CC2CC2)nc2cc3c(cc21)CCN(C[C@H](N)CF)C3=O [Example 193, (S)-2-(7-((1H-pyrazol-4-yl)methoxy)-1-(cyclopropylmethyl)-1H-indol-2-yl)-6-(2-amino-3-fluoropropyl)-1-methyl-1,6,7,8-tetrahydro-5H-imidazo[4,5-g]isoquinolin-5-one]
11 to 100	Cn1c(-c2cc3cccc(OCCc4cnco4)c3n2CC2CC2)nc2cc3c(cc21)CCN(C[C@H](N)CF)C3=O [Example 194, (S)-6-(2-amino-3-fluoropropyl)-2-(1-(cyclopropylmethyl)-7-(2-(oxazol-5-yl)ethoxy)-1H-indol-2-yl)-1-methyl-1,6,7,8-tetrahydro-5H-imidazo[4,5-g]isoquinolin-5-one]
101 to 500	Cn1c(-c2cc3cccc(OCCc4cocn4)c3n2CC2CC2)nc2cc3c(cc21)CCN(C[C@H](N)CF)C3=O [Example 196, (S)-6-(2-amino-3-fluoropropyl)-2-(1-(cyclopropylmethyl)-7-(2-(oxazol-4-yl)ethoxy)-1H-indol-2-yl)-1-methyl-1,6,7,8-tetrahydro-5H-imidazo[4,5-g]isoquinolin-5-one]
101 to 500	CC(Oc1cccc2cc(-c3nc4cc5c(cc4n3C)CCN(C[C@H](N)CF)C5=O)n(CC3CC3)c12)c1ccno1 (stereo partly drawn) [Example 197, 6-((S)-2-amino-3-fluoropropyl)-2-(1-(cyclopropylmethyl)-7-(1-(isoxazol-5-yl)ethoxy)-1H-indol-2-yl)-1-methyl-1,6,7,8-tetrahydro-5H-imidazo[4,5-g]isoquinolin-5-one]
101 to 500	COC(=O)NC[C@@H](C)Oc1cccc2cc(-c3nc4cc5c(cc4n3C)CCN(C[C@H](N)CF)C5=O)n(CC3CC3)c12 [Example 200, methyl ((R)-2-((2-(6-((S)-2-amino-3-fluoropropyl)-1-methyl-5-oxo-5,6,7,8-tetrahydro-1H-imidazo[4,5-g]isoquinolin-2-yl)-1-(cyclopropylmethyl)-1H-indol-7-yl)oxy)propyl)carbamate]
101 to 500	COC(=O)NC[C@H](C)Oc1cccc2cc(-c3nc4cc5c(cc4n3C)CCN(C[C@H](N)CF)C5=O)n(CC3CC3)c12 [Example 202, methyl ((S)-2-((2-(6-((S)-2-amino-3-fluoropropyl)-1-methyl-5-oxo-5,6,7,8-tetrahydro-1H-imidazo[4,5-g]isoquinolin-2-yl)-1-(cyclopropylmethyl)-1H-indol-7-yl)oxy)propyl) carbamate]
101 to 500	Cn1c(-c2cc3cccc(OCCc4cc[nH]c4)c3n2CC2CC2)nc2cc3c(cc21)CCN(C[C@H](N)CF)C3=O [Example 203]
501 to 1000	COC(=O)N[C@H](C)COc1cccc2cc(-c3nc4cc5c(cc4n3C)CCN(C[C@H](N)CF)C5=O)n(CC3CC3)c12 [Example 209, methyl ((R)-1-((2-(6-((S)-2-amino-3-fluoropropyl)-1-methyl-5-oxo-5,6,7,8-tetrahydro-1H-imidazo[4,5-g]isoquinolin-2-yl)-1-(cyclopropylmethyl)-1H-indol-7-yl)oxy)propan-2-yl) carbamate]
101 to 500	CNC(=O)OCCOc1cccc2cc(-c3nc4cc5c(cc4n3C)CCN(C[C@H](N)CF)C5=O)n(CC3CC3)c12 [Example 211, (S)-2-((2-(6-(2-amino-3-fluoropropyl)-1-methyl-5-oxo-5,6,7,8-tetrahydro-1H-imidazo[4,5-g]isoquinolin-2-yl)-1-(cyclopropylmethyl)-1H-indol-7-yl)oxy)ethyl methylcarbamate]
501 to 1000	Cn1c(-c2cc3cccc(OCC(C)(C)O)c3n2CC2CC2)nc2cc3c(cc21)CCN(C[C@H](N)CF)C3=O [Example 214, (S)-6-(2-amino-3-fluoropropyl)-2-(1-(cyclopropylmethyl)-7-(2-hydroxy-2-methylpropoxy)-1H-indol-2-yl)-1-methyl-1,6,7,8-tetrahydro-5H-imidazo[4,5-g]isoquinolin-5-one]
101 to 500	Cn1c(-c2cc3cccc(OC[C@@H](O)C(F)(F)F)c3n2CC2CC2)nc2cc3c(cc21)CCN(C[C@H](N)CF)C3=O [Example 215, 6-((S)-2-amino-3-fluoropropyl)-2-(1-(cyclopropylmethyl)-7-((R)-3,3,3-trifluoro-2-hydroxypropoxy)-1H-indol-2-yl)-1-methyl-1,6,7,8-tetrahydro-5H-imidazo[4,5-g]isoquinolin-5-one]
101 to 500	Cn1c(-c2cc3cccc(OC[C@H](O)C(F)(F)F)c3n2CC2CC2)nc2cc3c(cc21)CCN(C[C@H](N)CF)C3=O [Example 216, 6-((S)-2-amino-3-fluoropropyl)-2-(1-(cyclopropylmethyl)-7-((S)-3,3,3-trifluoro-2-hydroxypropoxy)-1H-indol-2-yl)-1-methyl-1,6,7,8-tetrahydro-5H-imidazo[4,5-g]isoquinolin-5-one]
101 to 500	Cn1c(-c2cc3cccc(OCCO)c3n2Cc2ccno2)nc2cc3c(cc21)CCN(C[C@H](N)CF)C3=O [Example 218, (S)-6-(2-amino-3-fluoropropyl)-2-(7-(2-hydroxyethoxy)-1-(isoxazol-5-ylmethyl)-1H-indol-2-yl)-1-methyl-1,6,7,8-tetrahydro-5H-imidazo[4,5-g]isoquinolin-5-one]
101 to 500	Cn1c(-c2cc3cccc(OCC4CCNC4=O)c3n2CC2CC2)nc2cc3c(cc21)CCN(C[C@H](N)CF)C3=O (stereo partly drawn) [Example 219, 6-((S)-2-amino-3-fluoropropyl)-2-(1-(cyclopropylmethyl)-7-((2-oxopyrrolidin-3-yl)methoxy)-1H-indol-2-yl)-1-methyl-1,6,7,8-tetrahydro-5H-imidazo[4,5-g]isoquinolin-5-one]
101 to 500	Cn1c(-c2cc3cccc(OCCn4cnc(C#N)n4)c3n2CC2CC2)nc2cc3c(cc21)CCN(C[C@H](N)CF)C3=O [Example 224, (S)-1-(2-((2-(6-(2-amino-3-fluoropropyl)-1-methyl-5-oxo-5,6,7,8-tetrahydro-1H-imidazo[4,5-g]isoquinolin-2-yl)-1-(cyclopropylmethyl)-1H-indol-7-yl)oxy)ethyl)-1H-1,2,4-triazole-3-carbonitrile]
> 1000	Cn1c(-c2cc3cccc(OCCn4ncnc4C#N)c3n2CC2CC2)nc2cc3c(cc21)CCN(C[C@H](N)CF)C3=O [Example 225, (S)-1-(2-((2-(6-(2-amino-3-fluoropropyl)-1-methyl-5-oxo-5,6,7,8-tetrahydro-1H-imidazo[4,5-g]isoquinolin-2-yl)-1-(cyclopropylmethyl)-1H-indol-7-yl)oxy)ethyl)-1H-1,2,4-triazole-5-carbonitrile]

Source: patent US20250346592A1 (Celgene Corporation, priority 2022, published 2025)
